Results: ChEMBL document CHEMBL3046704, “Control of Muhlenbergia frondosa (wirestem muhly) with post-emergence sulfonylurea herbicides in maize (Zea mays)” (Crop Prot, 2007)

Tests used:
Muhlenbergia [1] = assay: Post-emergence herbicidal activity against Muhlenbergia frondosa at 25 g a.i./ha measured after 28 days in presence of Agral 90 relative to untreated-control; type: functional
Elymus repens [2] = assay: Post-emergence herbicidal activity against Elymus repens (couch grass) relative to control; type: functional
Zea mays [3] = assay: Phytotoxicity against Zea mays (maize) crop assessed as crop injury at 25 g a.i./ha measured after 7 days in presence of Agral 90 relative to control; type: organism-based; conditions: in vivo, 168 h
Muhlenbergia [4] = assay: Post-emergence herbicidal activity against Muhlenbergia frondosa assessed as reduction in dry weight at 25 g a.i./ha measured after 56 days in presence of Agral 90 relative to untreated-control; type: functional; design: scale not given: the % may be the effect or the level left
Muhlenbergia [5] = assay: Post-emergence herbicidal activity against Muhlenbergia frondosa assessed as increase in maize yield at 25 g a.i./ha in presence of Agral 90 relative to untreated-control; type: functional
Muhlenbergia [6] = assay: Post-emergence herbicidal activity against Muhlenbergia frondosa assessed as reduction in density at 25 g a.i./ha measured after 56 days in presence of Agral 90 relative to untreated-control; type: functional; design: scale not given: the % may be the effect or the level left
Muhlenbergia [7] = assay: Post-emergence herbicidal activity against Muhlenbergia frondosa at 25 g a.i./ha measured after 56 days in presence of Agral 90 relative to untreated-control; type: functional
Elymus repens [8] = assay: Post-emergence herbicidal activity against Elymus repens (couch grass) at 35 g/ha relative to control; type: functional
Muhlenbergia [9] = assay: Post-emergence herbicidal activity against Muhlenbergia frondosa at 15 g a.i./ha measured after 28 days in presence of Agral 90 relative to untreated-control; type: functional
Muhlenbergia [10] = assay: Post-emergence herbicidal activity against Muhlenbergia frondosa assessed as number of plants at 15 g a.i./ha measured after 56 days in presence of Agral 90 (reference value: 41 /m2); type: functional
Muhlenbergia [11] = assay: Post-emergence herbicidal activity against Muhlenbergia frondosa assessed as increase in maize yield at 15 g a.i./ha in presence of Agral 90 relative to untreated-control; type: functional
Zea mays [12] = assay: Phytotoxicity against Zea mays (maize) crop assessed as crop injury at 15 g a.i./ha measured after 7 days in presence of Agral 90 relative to control; type: organism-based; conditions: in vivo, 168 h
Muhlenbergia [13] = assay: Post-emergence herbicidal activity against Muhlenbergia frondosa assessed as dry weight at 15 g a.i./ha measured after 56 days in presence of Agral 90 (reference value: 102 g); type: functional
Muhlenbergia [14] = assay: Post-emergence herbicidal activity against Muhlenbergia frondosa at 15 g a.i./ha measured after 56 days in presence of Agral 90 relative to untreated-control; type: functional
Muhlenbergia [15] = assay: Post-emergence herbicidal activity against Muhlenbergia frondosa assessed as maize yield at 25 g a.i./ha in presence of Agral 90 (reference value: 9.64 tons/ha); type: functional
Elymus repens [16] = assay: Post-emergence herbicidal activity against Elymus repens (couch grass) at 42 g/ha relative to control; type: functional
Muhlenbergia [17] = assay: Post-emergence herbicidal activity against Muhlenbergia frondosa assessed as number of plants at 25 g a.i./ha measured after 56 days in presence of Agral 90 (reference value: 41 /m2); type: functional
Muhlenbergia [18] = assay: Post-emergence herbicidal activity against Muhlenbergia frondosa assessed as dry weight at 25 g a.i./ha measured after 56 days in presence of Agral 90 (reference value: 102 g); type: functional
Zea mays [19] = assay: Phytotoxicity against Zea mays (maize) crop assessed as crop injury at 35 g a.i./ha measured after 7 days in presence of 28% UAN relative to control; type: organism-based; conditions: in vivo, 168 h
Muhlenbergia [20] = assay: Post-emergence herbicidal activity against Muhlenbergia frondosa assessed as reduction in density at 35 g a.i./ha measured after 56 days in presence of 28% UAN relative to untreated-control; type: functional; design: scale not given: the % may be the effect or the level left
Muhlenbergia [21] = assay: Post-emergence herbicidal activity against Muhlenbergia frondosa assessed as increase in maize yield at 35 g a.i./ha in presence of 28% UAN relative to untreated-control; type: functional
Muhlenbergia [22] = assay: Post-emergence herbicidal activity against Muhlenbergia frondosa at 35 g a.i./ha measured after 28 days in presence of 28% UAN relative to untreated-control; type: functional
Muhlenbergia [23] = assay: Post-emergence herbicidal activity against Muhlenbergia frondosa at 35 g a.i./ha measured after 56 days in presence of 28% UAN relative to untreated-control; type: functional
Muhlenbergia [24] = assay: Post-emergence herbicidal activity against Muhlenbergia frondosa assessed as reduction in dry weight at 35 g a.i./ha measured after 56 days in presence of 28% UAN relative to untreated-control; type: functional; design: scale not given: the % may be the effect or the level left

## COc1cc(OC)nc(NC(=O)NS(=O)(=O)c2ncccc2C(=O)N(C)C)n1 [NICOSULFURON]
Muhlenbergia [1]
  Activity: 49%
Elymus repens [2]
  Activity: 89%
Zea mays [3]
  Activity: 1.1%
Muhlenbergia [4]
  Activity: 70%
Muhlenbergia [5]
  Activity: 22%
Muhlenbergia [6]
  Activity: 44%
Muhlenbergia [7]
  Activity: 32%
Elymus repens [8]
  Activity: 97%

## CCS(=O)(=O)c1cccnc1S(=O)(=O)NC(=O)Nc1nc(OC)cc(OC)n1 [RIMSULFURON]
Elymus repens [2]
  Activity: 63%
Muhlenbergia [9]
  Activity: 32%
Muhlenbergia [10]
  Activity: 44 /m2
Muhlenbergia [11]
  Activity: 11%
Zea mays [12]
  Activity: 1.2%
Muhlenbergia [13]
  Activity: 72 g
Muhlenbergia [14]
  Activity: 14%

## O=C(Nc1nc(OC(F)F)cc(OC(F)F)n1)NS(=O)(=O)c1ccccc1C(=O)O [PRIMISULFURON]
Muhlenbergia [1]
  Activity: 32%
Muhlenbergia [15]
  Crop_yield: 10.1 tons/ha
Elymus repens [2]
  Activity: 80%
Zea mays [3]
  Activity: 1.2%
Elymus repens [16]
  Activity: 94%
Muhlenbergia [7]
  Activity: 12%
Muhlenbergia [17]
  Activity: 39 /m2
Muhlenbergia [18]
  Activity: 78 g

## COc1cc(OC)nc(NC(=O)NS(=O)(=O)c2cc(NC=O)ccc2C(=O)N(C)C)n1 [FORAMSULFURON]
Zea mays [19]
  Activity: 1.1%
Muhlenbergia [20]
  Activity: 76%
Muhlenbergia [21]
  Activity: 17%
Muhlenbergia [22]
  Activity: 80%
Muhlenbergia [23]
  Activity: 89%
Muhlenbergia [24]
  Activity: 94%
